Test results reported in patent US9353082B2, “Pharmaceutical compounds” (BIAL—PORTELA & CA, S.A., priority 2008, dated 2016).

How the values were obtained:
FAAH [1] = biological target: T1, FAAH (Mus musculus, UniProt O08914); assay: In vivo FAAH inhibition after oral dosing, remaining activity in liver homogenate (LVh, peripheral tissue); design: species or system NMRI mice; conditions: 8 h
T1 construct: A fragment of liver, left lung lobe and brain without cerebellum were removed; from tissue; host or cells: male NMRI mice; brain (without cerebellum) and liver homogenates
T1 sequence (O08914 1-579): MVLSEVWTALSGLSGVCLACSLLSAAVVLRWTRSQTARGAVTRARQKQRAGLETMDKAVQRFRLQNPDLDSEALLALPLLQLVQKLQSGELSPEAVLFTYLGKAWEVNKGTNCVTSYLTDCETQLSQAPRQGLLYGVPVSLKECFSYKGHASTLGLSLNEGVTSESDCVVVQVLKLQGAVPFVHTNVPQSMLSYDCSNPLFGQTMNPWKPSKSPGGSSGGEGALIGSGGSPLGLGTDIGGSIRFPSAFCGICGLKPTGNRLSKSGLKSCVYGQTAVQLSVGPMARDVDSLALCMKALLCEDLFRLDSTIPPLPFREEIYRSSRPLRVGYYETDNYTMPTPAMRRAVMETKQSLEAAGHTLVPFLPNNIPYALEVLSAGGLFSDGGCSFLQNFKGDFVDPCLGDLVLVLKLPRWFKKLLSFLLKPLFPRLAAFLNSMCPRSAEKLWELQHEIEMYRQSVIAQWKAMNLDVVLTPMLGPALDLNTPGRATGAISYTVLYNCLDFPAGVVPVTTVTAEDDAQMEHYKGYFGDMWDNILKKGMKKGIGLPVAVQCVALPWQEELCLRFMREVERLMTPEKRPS
Procedure, shortened: (§1)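 Remaining FAAH activity is given as % of vehicle-treated controls after blank subtraction, measured by radiolabelled AEA hydrolysis (2 μM AEA, 5 nM 3H-AEA, 37 °C) in brain (10 min) or liver (7 min) homogenates. These came from fasted male NMRI mice dosed orally at 30 or 3 mg/kg.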

carboxylesterase (CE) = assay: Carboxylesterase (CE) activity in mouse liver microsomes (LVms), p-nitrophenyl acetate; type: biochemical; conditions: 10 uM compound, read 10 min after substrate, remaining CE activity
Procedure: FAAH inhibition was determined as described above. Inhibition of monoacylglycerol lipase (MAGL) and carboxylesterase (CE) was performed according to the protocols described below. The controls for both in vitro and in vivo were the reaction mix minus the test compounds. Therefore, a low value in Table 2 below for the test compounds indicates a strong inhibitor.
CE activity measurement is based on the formation of p-nitrophenol from p-nitrophenyl acetate. Briefly, in 96-well plates 8 μg/ml of rat or mouse liver microsomes (LVms) were incubated with 10 μM FAAH inhibitors for 15 min and then the substrate, p-nitrophenyl acetate, was added to a final concentration of 1 mM. The plate was read at 405 nm 10 min after substrate addition for the appearance of p-nitrophenol using a spectrophotometer. The carboxylesterase activity in microsome extracts without inhibitor added were set at 100% as control and the remaining CE activities after incubation with inhibitors were calculated relative to the control.

FAAH [2] = biological target: T1, FAAH; assay: In vivo FAAH inhibition after oral dosing, remaining activity in brain homogenate (BRh, central nervous tissue); design: species or system NMRI mice; conditions: 8 h
Procedure, shortened: as §1

Structure (SMILES): COc1cccc(-c2cn(C(=O)N3CCCc4ccccc43)cn2)c1 [Compound 39, (3,4-dihydroquinolin-1(2H)-yl)(4-(3-methoxyphenyl)-1H-imidazol-1-yl)methanone]
- FAAH LVh 3 mg · kg · 8 h (FAAH [1]; in vivo, mouse liver, 3 mg/kg oral, remaining enzymatic activity): 101.1 % of control
- In Vivo LVh 3 mg/kg 8 h, remaining FAAH activity (FAAH [1]; liver homogenate, 3 mg/kg): 101.1 % of control
- CE Mou LVms 10 uM 10 min (carboxylesterase (CE)): 84.3 % of control
- In Vivo BRh 3 mg/kg 8 h, remaining FAAH activity (FAAH [2]; brain homogenate, 3 mg/kg): 120.6 % of control
- FAAH BRh 3 mg · kg · 8 h (FAAH [2]; in vivo, mouse brain, 3 mg/kg oral, remaining enzymatic activity): 120.6 % of control
